Values quoted from earlier work, collected in US12486292B2, “Prodrug platform useful to deliver amines, amides and phenols” (Changchun Changcheng Pharmaceutical Technology Co., LTD, priority 2019, dated 2025).

Conditions: phase I human clinical trials, oral dosing

## CCCC(CCC)C(=O)Nc1ccn([C@@H]2O[C@H](CO)[C@@H](O)C2(F)F)c(=O)n1 [LY2334737]
  Hepatotoxicity: observed in some patients
